# Experimental data taken from patent US9206134B2, “Polymorphic forms of compounds as prolyl hydroxylase inhibitor, and uses thereof” (BEIJING BETTA PHARMACEUTICALS CO. LTD., priority 2011, dated 2015).
# Experiments:
# Erythropoietin (EPO) = Erythropoietin (EPO) induction in normal mice; format: in vivo; conditions: male C57BL/6 mice, oral suspension in 0.5% CMC, serum 6 hours after dosing
# Procedure: Eight-week-old male C57BL/6 mice were dosed orally with a suspension of one crystal form of the compound in 0.5% CMC at 20, 60 and 100 mg/kg. Blood samples were obtained from the orbital venous plexus 6 hours after dosing and serum was collected (see also, Robinson A, et al., Gastroenterology. 2008, 134:145-55; Hsieh M M, et al., Blood. 2007, 110:2140-7). Samples were analyzed for EPO by electrochemiluminescence-based immunoassay (MSD) according to manufacturer's instructions. The inducted EPOs when the Crystalline Form VI in this invention was used in suspension were determined to be around 6, 297 and above 300 folds over that of the vehicle group without induction.
# [1] = Stability determination of crystal forms (competitive slurry in isopropyl acetate); format: physicochemical; conditions: Forms IV and VI stirred together in isopropyl acetate solution of compound of Formula I, room temperature, 36 hrs; resulted crystal form purely Form VI
# Procedure: 9.6 mg of the Crystalline Form IV and 1.97 mg of the Crystalline Form VI disclosed in this invention were then added into the solution and stirred at room temperature for 36 hrs. After centrifugation and drying, the resulted crystal form was determined to be purely the Crystalline Form VI.
structure (smiles),measurement,setting,value
Cc1nc(C(=O)NCC(=O)O)c(O)c2ccc(Oc3ccccc3)cc12 [Crystalline Form VI],inducted EPO over that of the vehicle group,Erythropoietin (EPO); 20 mg/kg,around 6 folds
same,inducted EPO over that of the vehicle group,Erythropoietin (EPO); 60 mg/kg,~297 folds
same,inducted EPO over that of the vehicle group,Erythropoietin (EPO); 100 mg/kg,above 300 folds
same,thermodynamic stability of crystal form,[1],thermodynamically the most stable crystal form
